Laboratory results reported in patent US10294202B2, “Pyrrolidinones as herbicides” (FMC Corporation, priority 2013, dated 2019).

Columns and labels:
nightshade = assay: Test E preemergence herbicide test; assay type: in vivo, Solanum ptycanthum; parameters: key: 0 = no effect, 100 = complete control
Excerpt: (§1) Seeds of plant species selected from corn (Zea mays), soybean (Glycine max), velvetleaf (Abutilon theophrasti), lambsquarters (Chenopodium album), wild poinsettia (Euphorbia heterophylla), pigweed, palmer (palmer pigweed, Amaranthus palmeri), waterhemp (common waterhemp, Amaranthus rudis), surinam grass (Brachiaria decumbens), crabgrass, large (large crabgrass, Digitaria sanguinalis), crabgrass, Brazil (Brazilian crabgrass, Digitaria horizontalis), panicum, fall (fall panicum, Panicum dichotomiflorum), foxtail, giant (giant foxtail, Setaria faberii), foxtail, green (green foxtail, Setaria viridis), goosegrass (Eleusine indica), johnsongrass (Sorghum halepense), ragweed (common ragweed, Ambrosia elatior), barnyardgrass (Echinochloa crus-galli), sandbur (southern sandbur, Cenchrus echinatus), arrowleaf […] rhombifolia), ryegrass, Italian (Italian ryegrass, Lolium multiflorum), dayflower, VA (Virginia dayflower, Commelina virginica), field bindweed (Convolvulus arvensis), morningglory (Ipomoea coccinea), nightshade (eastern black nightshade, Solanum ptycanthum), kochia (Kochia scoparia), nutsedge, yellow (yellow nutsedge, Cyperus esculentus), cocklebur (common cocklebur, Xanthium strumarium), smartweed (ladysthumb smartweed, Polygonum Persicaria) and beggarticks (hairy beggarticks, Bidens pilosa), were planted into a silt loam soil and treated preemergence with test chemicals formulated in a non-phytotoxic solvent mixture which included a surfactant. Treated plants and controls were maintained in a greenhouse for 21 days, after which time all species were compared to controls and visually evaluated. Plant response ratings, summarized in Table E, are based on a scale of 0 to 100 where 0 is no effect and 100 is complete control. A dash (-) response means no test result.

wild poinsettia = assay: Test E preemergence herbicide test; assay type: in vivo, Euphorbia heterophylla; parameters: key: 0 = no effect, 100 = complete control
Excerpt: as §1

bromegrass, downy = assay: Test C pre-/postemergence herbicide test; assay type: in vivo, Bromus tectorum; settings: Preemergence
Outline: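 Pre-emergence: seeds sown in loam/sand blend and treated with compound in surfactant-containing solvent. Post-emergence: plants at 2–18 cm (1- to 4-leaf stage) in peat-based medium sprayed with the same formulation. Visual rating versus controls after 13–15 days in greenhouse, scale 0 (no effect) to 100 (complete control).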

dayflower, VA = assay: Test E preemergence herbicide test; assay type: in vivo, Commelina virginica; parameters: key: 0 = no effect, 100 = complete control
Excerpt: as §1

oilseed rape = assay: Test D pre-/postemergence herbicide test; assay type: in vivo, Brassica napus; settings: for Plant response rating: Postemergence, Oilseed Rape, scale 0 to 100; for Plant response rating, Oilseed Rape: Preemergence, scale 0 to 100 (0 no effect, 100 complete control)
Excerpt: Seeds of plant species selected from bluegrass (annual bluegrass, Poa annua), blackgrass (Alopecurus myosuroides), canarygrass (littleseed canarygrass, Phalaris minor), chickweed (common chickweed, Stellaria media), galium (catchweed bedstraw, Galium aparine), bromegrass, downy (downy bromegrass, Bromus tectorum), field poppy (Papaver rhoeas), field violet (Viola arvensis), foxtail, green (green foxtail, Setaria viridis), deadnettle (henbit deadnettle, Lamium amplexicaule), ryegrass, Italian (Italian ryegrass, Lolium multiflorum), kochia (Kochia scoparia), lambsquarters (Chenopodium album), oilseed rape (Brassica napus), pigweed (Amaranthus retroflexus), chamomile (scentless chamomile, Matricaria inodora), Russian thistle (Salsola kali), speedwell (bird's-eye speedwell, Veronica persica), barley, spring (spring barley, Hordeum vulgare), wheat, spring (spring wheat, Triticum aestivum), buckwheat, wild (wild buckwheat, Polygonum convolvulus), mustard, wild (wild mustard, Sinapis arvensis), oat, wild (wild oat, Avena fatua), radish, wild (wild radish, Raphanus raphanistrum), […]), barley, winter (winter barley, Hordeum vulgare), and wheat, winter (winter wheat, Triticum aestivum) were planted into a silt loam soil and treated preemergence with test chemicals formulated in a non-phytotoxic solvent mixture which included a surfactant. At the same time, these species were planted in pots containing Redi-Earth® planting medium (Scotts Company, 14111 Scottslawn Road, Marysville, Ohio 43041) comprising spaghnum peat moss, vermiculite, wetting agent and starter nutrients and treated with postemergence applications of the test chemicals formulated in the same manner. Plants ranged in height from 2 to 18 cm (1- to 4-leaf stage). Treated plants and controls were maintained in a controlled growth environment for 7 to 21 days after which time all species were compared to controls and visually evaluated. Plant response ratings, summarized in Table D, are based on a scale of 0 to 100 where 0 is no effect and 100 is complete control. A dash (-) response means no test result.

Russian thistle = assay: Test D pre-/postemergence herbicide test; assay type: in vivo, Salsola kali; settings: for Plant response rating: Postemergence, Russian Thistle, scale 0 to 100; for Plant response rating, Russian Thistle: Preemergence, scale 0 to 100 (0 no effect, 100 complete control)
Outline: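 Test chemicals in a non-phytotoxic solvent with surfactant were applied preemergence to seeds in silt loam soil and postemergence to plants at 2-18 cm (1- to 4-leaf stage) in peat-based medium. After 7 to 21 days in a controlled environment, injury was rated visually versus controls on a 0-100 scale (100 = complete control).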

## O=C1NCC(c2ccc(Cl)c(Cl)c2)C1C(=O)Nc1ccccc1F (racemic) [Compound 14]
nightshade; 16 g ai/ha
  Plant response rating, Nightshade: 0
nightshade; 31 g ai/ha
  Plant response rating, Nightshade: 0
nightshade; 62 g ai/ha
  Plant response rating, Nightshade: 30
nightshade; 125 g ai/ha
  Plant response rating, Nightshade: 50
nightshade; 250 g ai/ha
  Plant response rating, Nightshade: 70
Wild poinsettia; 16 g ai/ha
  Plant response rating, Poinsettia, Wild: 0
Wild poinsettia; 31 g ai/ha
  Plant response rating, Poinsettia, Wild: 0
Wild poinsettia; 62 g ai/ha
  Plant response rating, Poinsettia, Wild: 15
Wild poinsettia; 125 g ai/ha
  Plant response rating, Poinsettia, Wild: 20
Wild poinsettia; 250 g ai/ha
  Plant response rating, Poinsettia, Wild: 25
bromegrass, downy; 62 g ai/ha, scale 0 to 100
  Plant response rating, Bromegrass, Downy: 0
bromegrass, downy; 125 g ai/ha, scale 0 to 100 (0 no effect, 100 complete control)
  Plant response rating, Bromegrass, Downy: 0
bromegrass, downy; 31 g ai/ha, scale 0 to 100 (0 no effect, 100 complete control)
  Bromegrass, Downy plant response rating: 0
bromegrass, downy; 250 g ai/ha, scale 0 to 100 (0 no effect, 100 complete control)
  Plant response rating, Bromegrass, Downy: 0
dayflower, VA; 16 g ai/ha
  Plant response rating, Dayflower, VA: 0
dayflower, VA; 31 g ai/ha
  Plant response rating, Dayflower, VA: 0
dayflower, VA; 62 g ai/ha
  Plant response rating, Dayflower, VA: 0
dayflower, VA; 125 g ai/ha
  Plant response rating, Dayflower, VA: 0
dayflower, VA; 250 g ai/ha
  Plant response rating, Dayflower, VA: 0

## O=C1NCC(c2ccc(C(F)(F)F)cc2)C1C(=O)Nc1cccc(F)c1F (racemic) [Compound 202]
nightshade; 31 g ai/ha
  Plant response rating, Nightshade: 0
nightshade; 62 g ai/ha
  Plant response rating, Nightshade: 50
nightshade; 125 g ai/ha
  Plant response rating, Nightshade: 90
nightshade; 250 g ai/ha
  Plant response rating, Nightshade: 80
Wild poinsettia; 31 g ai/ha
  Plant response rating, Poinsettia, Wild: 0
Wild poinsettia; 62 g ai/ha
  Plant response rating, Poinsettia, Wild: 0
Wild poinsettia; 125 g ai/ha
  Plant response rating, Poinsettia, Wild: 25
Wild poinsettia; 250 g ai/ha
  Plant response rating, Poinsettia, Wild: 65
Oilseed rape; 31 g ai/ha
  Plant response rating: 60
  Plant response rating, Oilseed Rape: 0
Oilseed rape; 62 g ai/ha
  Plant response rating: 70
  Plant response rating, Oilseed Rape: 35
Oilseed rape; 125 g ai/ha
  Plant response rating: 60
  Plant response rating, Oilseed Rape: 45
Oilseed rape; 250 g ai/ha
  Plant response rating: 55
  Plant response rating, Oilseed Rape: 75
Russian thistle; 31 g ai/ha
  Plant response rating: 30
  Plant response rating, Russian Thistle: 15
Russian thistle; 62 g ai/ha
  Plant response rating: 30
  Plant response rating, Russian Thistle: 20
Russian thistle; 125 g ai/ha
  Plant response rating: 30
  Plant response rating, Russian Thistle: 35
Russian thistle; 250 g ai/ha
  Plant response rating: 35
  Plant response rating, Russian Thistle: 40
dayflower, VA; 31 g ai/ha
  Plant response rating, Dayflower, VA: 0
dayflower, VA; 62 g ai/ha
  Plant response rating, Dayflower, VA: 0
dayflower, VA; 125 g ai/ha
  Plant response rating, Dayflower, VA: 0
dayflower, VA; 250 g ai/ha
  Plant response rating, Dayflower, VA: 40

## O=C1NCC(c2ccc(OC(F)F)cc2)C1C(=O)Nc1cccc(F)c1F (racemic) [Compound 350]
nightshade; 31 g ai/ha
  Plant response rating, Nightshade: 0
nightshade; 62 g ai/ha
  Plant response rating, Nightshade: 0
nightshade; 125 g ai/ha
  Plant response rating, Nightshade: 50
nightshade; 250 g ai/ha
  Plant response rating, Nightshade: 80
Wild poinsettia; 31 g ai/ha
  Plant response rating, Poinsettia, Wild: 0
Wild poinsettia; 62 g ai/ha
  Plant response rating, Poinsettia, Wild: 0
Wild poinsettia; 125 g ai/ha
  Plant response rating, Poinsettia, Wild: 0
Wild poinsettia; 250 g ai/ha
  Plant response rating, Poinsettia, Wild: 30
dayflower, VA; 31 g ai/ha
  Plant response rating, Dayflower, VA: 0
dayflower, VA; 62 g ai/ha
  Plant response rating, Dayflower, VA: 0
dayflower, VA; 125 g ai/ha
  Plant response rating, Dayflower, VA: 0
dayflower, VA; 250 g ai/ha
  Plant response rating, Dayflower, VA: 40

## O=C1NCC(c2ccc(C(F)(F)F)cc2)C1C(=O)Nc1cccc(F)c1F (stereo not drawn) [Compound 80, N-(2,3-difluorophenyl)-2-oxo-4-[4-(trifluoromethyl)phenyl]-3-pyrrolidinecarboxamide]
nightshade; 16 g ai/ha
  Plant response rating, Nightshade: 50
nightshade; 62 g ai/ha
  Plant response rating, Nightshade: 60
nightshade; 125 g ai/ha
  Plant response rating, Nightshade: 70
nightshade; 250 g ai/ha
  Plant response rating, Nightshade: 70
Wild poinsettia; 16 g ai/ha
  Plant response rating, Poinsettia, Wild: 0
Wild poinsettia; 31 g ai/ha
  Plant response rating, Poinsettia, Wild: 0
Wild poinsettia; 62 g ai/ha
  Plant response rating, Poinsettia, Wild: 0
Wild poinsettia; 125 g ai/ha
  Plant response rating, Poinsettia, Wild: 0
Wild poinsettia; 250 g ai/ha
  Plant response rating, Poinsettia, Wild: 0
Oilseed rape; 31 g ai/ha
  Plant response rating: 30
  Plant response rating, Oilseed Rape: 0
Oilseed rape; 62 g ai/ha
  Plant response rating: 50
  Plant response rating, Oilseed Rape: 10
Oilseed rape; 125 g ai/ha
  Plant response rating: 45
  Plant response rating, Oilseed Rape: 10
Oilseed rape; 250 g ai/ha
  Plant response rating: 60
  Plant response rating, Oilseed Rape: 30
Russian thistle; 31 g ai/ha
  Plant response rating: 20
Russian thistle; 62 g ai/ha
  Plant response rating: 30
Russian thistle; 125 g ai/ha
  Plant response rating: 25
Russian thistle; 250 g ai/ha
  Plant response rating: 35
dayflower, VA; 16 g ai/ha
  Plant response rating, Dayflower, VA: 0
dayflower, VA; 31 g ai/ha
  Plant response rating, Dayflower, VA: 0
dayflower, VA; 62 g ai/ha
  Plant response rating, Dayflower, VA: 0
dayflower, VA; 125 g ai/ha
  Plant response rating, Dayflower, VA: 0
dayflower, VA; 250 g ai/ha
  Plant response rating, Dayflower, VA: 0

## O=C1NC[C@H](c2cccc(C(F)(F)F)c2)[C@H]1C(=O)Nc1ccccc1F [Compound 204, (3R,4S)—N-(2-fluorophenyl)-2-oxo-4-[3-(trifluoromethyl)phenyl]-3-pyrrolidinecarboxamide]
nightshade; 31 g ai/ha
  Plant response rating, Nightshade: 0
nightshade; 62 g ai/ha
  Plant response rating, Nightshade: 20
nightshade; 125 g ai/ha
  Plant response rating, Nightshade: 100
nightshade; 250 g ai/ha
  Plant response rating, Nightshade: 100
Wild poinsettia; 31 g ai/ha
  Plant response rating, Poinsettia, Wild: 0
Wild poinsettia; 62 g ai/ha
  Plant response rating, Poinsettia, Wild: 0
Wild poinsettia; 125 g ai/ha
  Plant response rating, Poinsettia, Wild: 20
Wild poinsettia; 250 g ai/ha
  Plant response rating, Poinsettia, Wild: 20
Oilseed rape; 62 g ai/ha
  Plant response rating, Oilseed Rape: 0
Oilseed rape; 125 g ai/ha
  Plant response rating, Oilseed Rape: 0
Oilseed rape; 31 g ai/ha
  Plant response rating, Oilseed Rape: 0
Oilseed rape; 250 g ai/ha
  Plant response rating, Oilseed Rape: 0
dayflower, VA; 31 g ai/ha
  Plant response rating, Dayflower, VA: 0
dayflower, VA; 62 g ai/ha
  Plant response rating, Dayflower, VA: 0
dayflower, VA; 125 g ai/ha
  Plant response rating, Dayflower, VA: 20
dayflower, VA; 250 g ai/ha
  Plant response rating, Dayflower, VA: 30

## O=C1NC[C@H](c2cccc(C(F)(F)F)c2)[C@H]1C(=O)Nc1cccc(F)c1F [Compound 206]
nightshade; 31 g ai/ha
  Plant response rating, Nightshade: 0
nightshade; 62 g ai/ha
  Plant response rating, Nightshade: 0
nightshade; 125 g ai/ha
  Plant response rating, Nightshade: 5
nightshade; 250 g ai/ha
  Plant response rating, Nightshade: 10
Wild poinsettia; 31 g ai/ha
  Plant response rating, Poinsettia, Wild: 0
Wild poinsettia; 62 g ai/ha
  Plant response rating, Poinsettia, Wild: 10
Wild poinsettia; 125 g ai/ha
  Plant response rating, Poinsettia, Wild: 0
Wild poinsettia; 250 g ai/ha
  Plant response rating, Poinsettia, Wild: 25
Oilseed rape; 62 g ai/ha
  Plant response rating, Oilseed Rape: 0
Oilseed rape; 125 g ai/ha
  Plant response rating, Oilseed Rape: 0
Oilseed rape; 31 g ai/ha
  Plant response rating, Oilseed Rape: 0
Oilseed rape; 250 g ai/ha
  Plant response rating, Oilseed Rape: 5
dayflower, VA; 31 g ai/ha
  Plant response rating, Dayflower, VA: 0
dayflower, VA; 62 g ai/ha
  Plant response rating, Dayflower, VA: 0
dayflower, VA; 125 g ai/ha
  Plant response rating, Dayflower, VA: 0
dayflower, VA; 250 g ai/ha
  Plant response rating, Dayflower, VA: 20
